The values below come from patent publication EP0498830B1, “GLUTAMIC AND ASPARTIC ACID DERIVATIVES WITH ANTIGASTRIN ACTIVITY AND A METHOD FOR THEIR PREPARATION” (ROTTA RESEARCH LABORATORIUM S.P.A., priority 1989, dated 1991).

Data set [1] deals with guinea-pig gall bladders stimulated in vitro by CCK-8. Kind of data set: Anti-CCK activity on guinea-pig gall bladder contracted in vitro by CCK-8. As to conditions: for IC50 ACTIVITY: CCK-8 10 ng/ml, at least three tests per compound. Here is the method:
In order to check the hypothesis that the molecular conformation of the subject compounds is suitable to give them a specific antagonistic activity towards gastrin and not towards CCK, the anticontracturant activity of some of the compounds of the invention was tested on guinea-pig gall bladders stimulated in vitro by CCK-8.
A longitudinal strip of guinea-pig gall bladder was placed in a bath for isolated organs in the presence of Krebs at a temperature of 32°C, continuously oxygenated by an oxygen-CO₂ mixture (95-5 V/V).
The isometric contractions were detected by means of a force transducer and recorded.
The gall bladder was contracted with the use of a 10ng/ml concentration of CCK-8; the antagonistic activity of the compounds towards the contracturant effect of the CCK was determined with the use of different concentrations and the IC50 value, that is, the concentration in mcg/ml of the compound which is able to antagonise the contracturant effect of the CCK by 50%, thus determined.
The results obtained are set out in the table below which gives the compounds tested and the IC50s which were calculated by the regression method on a set of at least three tests for each compound investigated.

Data set [2] addresses T1, gastrin receptor sites on the parietal cell membranes of the fundic mucosa of a guinea-pig stomach (Cavia porcellus, UniProt H0VZC5).
T1 sequence (H0VZC5 1-426): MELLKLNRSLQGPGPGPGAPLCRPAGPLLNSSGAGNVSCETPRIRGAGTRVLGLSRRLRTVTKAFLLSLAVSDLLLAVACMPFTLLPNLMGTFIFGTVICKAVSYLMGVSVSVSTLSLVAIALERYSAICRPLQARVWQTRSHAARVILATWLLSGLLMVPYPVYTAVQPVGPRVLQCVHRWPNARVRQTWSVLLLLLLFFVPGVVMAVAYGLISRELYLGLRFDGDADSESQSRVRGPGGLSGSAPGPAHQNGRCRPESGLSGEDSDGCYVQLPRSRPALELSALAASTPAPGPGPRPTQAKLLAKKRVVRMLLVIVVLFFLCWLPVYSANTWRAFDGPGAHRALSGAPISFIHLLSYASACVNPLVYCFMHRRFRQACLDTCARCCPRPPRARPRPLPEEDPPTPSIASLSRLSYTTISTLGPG
Description: Inhibition of binding of tritiated pentagastrin to isolated guinea-pig gastric glands. Also on record: from tissue; host or cells: isolated gastric glands from guinea-pig fundic mucosa (collagenase digestion). The protocol: The capacity of some of the compounds which are the subject of the invention to inhibit the binding of pentagastrin-[beta-alanyl-3-3H(N)] to the gastrin receptor sites on the parietal cell membranes of the fundic mucosa of a guinea-pig stomach was evaluated by comparison with the displacement of pentagastrin induced by proglumide, which is a reference antigastrin compound, by lorglumide, which is a powerful CCK antagonist mentioned above, and by the compound D5 which is the optical antipode (the L-series enantiomer) of the compound D1.
Male guinea pigs weighing about 400-500g were used. After the guinea pig had been killed, its stomach was removed and placed in oxygenated SPB buffer at 37°C (SPB = saline phosphate buffer: 149.6 mM NaCl, 3 mM K₂HPO₄, 0.64 mM NaH₂PO₄, pH 7.3).
After washing in the buffer, the stomach was placed on a petri dish and the antral part discarded.
The mucosa of the remaining part was removed from the underlying muscular part and was then chopped and transferred to a flask containing a collagenase digestion solution, 0.1% BSA and 0.2% glucose. The solution was incubated at 37°C for 10 minutes under agitation and a stream of 0₂.
During the incubation period, the tissue was passed several times through a series of pipettes with decreasing diameters in order to facilitate its digestion. At the end of the period, the tissue was removed and centrifuged at 1000 rpm. The supernatant liquid resulting from the centrifuging was discarded and the pellet washed several times with a washing buffer containing EPTA to remove the collagenase.
The glands were then isolated from the undigested tissue by conventional techniques, suspended in Hepes buffer for binding and incubated together with a radioactive tracer and the compounds under test for 30 minutes at 25°C.
After the supernatant liquid had been removed by centrifuging, the radioactivity associated with the pellet was determined with a liquid scintillator. The specific binding was determined as the difference between the binding in the absence and in the presence of 10⁻⁶ M pentagastrin.
The results obtained are shown in Table 1 which gives the IC50, that is, the concentration (in moles/litre) of the antagonist which can displace 50% of the pentagastrin tritiate from the receptor.

Data set [3] deals with T2, central gastrin receptors (Mus musculus, UniProt P56481).
T2 sequence (P56481 1-453): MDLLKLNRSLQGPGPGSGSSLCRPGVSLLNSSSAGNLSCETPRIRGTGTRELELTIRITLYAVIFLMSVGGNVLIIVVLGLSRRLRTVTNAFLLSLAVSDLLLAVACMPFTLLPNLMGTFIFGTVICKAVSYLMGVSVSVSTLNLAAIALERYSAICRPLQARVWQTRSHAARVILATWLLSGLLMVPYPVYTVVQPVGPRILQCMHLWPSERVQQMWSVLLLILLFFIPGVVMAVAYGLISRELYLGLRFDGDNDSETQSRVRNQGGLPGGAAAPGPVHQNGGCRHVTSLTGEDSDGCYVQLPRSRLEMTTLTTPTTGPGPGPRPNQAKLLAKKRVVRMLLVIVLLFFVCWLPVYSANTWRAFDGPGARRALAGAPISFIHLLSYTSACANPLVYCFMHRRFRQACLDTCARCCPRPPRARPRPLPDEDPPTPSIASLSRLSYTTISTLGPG
Kind of data set: Inhibition of binding of tritiated pentagastrin to mouse cerebral cortex membranes. Also on record: Mouse cortex tissue was homogenised cold in 20 volumes of tris buffer (pH 7.7); from tissue; host or cells: mouse cerebral cortex membranes; species or system mice. The following applies: for IC50: displacement of pentagastrin tritiate, 40 minutes at 37°C. The protocol: Cerebral cortex membranes were therefore used and pentagastrin tritiate was again used as the ligand.
Mouse cortex tissue was homogenised cold in 20 volumes of tris buffer (pH 7.7). After washing and centrifuging, the final pellet was resuspended in 20 volumes of binding buffer containing, inter alia, TRIS, BSA and bacitracin. 0.4 ml of the membrane thus obtained were then incubated with a radioactive tracer and with the compounds under test for 40 minutes at 37°C.
After the supernatant liquid had been removed by centrifuging, the radioactivity associated with the pellet was determined, again with a liquid scintillator. The specific binding is the difference between the binding in the absence and in the presence of 10⁻⁶M pentagastrin.
Again, this gives the IC50s of the compounds tested with the meaning as given above.

Data set [4] deals with gastric acid secretion induced by pentagastrin. Kind of data set: Antisecretive activity in anaesthetised rats, stimulant pentagastrin. The data set is classed as in vivo. The following applies: for ED50: Rattus norvegicus, iv, pentagastrin 30 mcg/kg/h, I.V. bolus, anaesthetised rats, read-out: Antagonistic activity (ED50 mg/kg IV) towards gastric acid secretion induced by pentagastrin. The protocol:
The antisecretive activity was determined in rats with the use of male animals weighing about 200g, anaesthetised with urethane. Gastric secretion was stimulated with pentagastrin. K.S. Lai's method (Gut 5, (1964), 327-341) was used, with slight modifications.
After tracheotomy, oesophageal and duodenal cannulae were inserted. A tepid solution (37°C) of 0.25 mM NaOH was perfused through the stomach by means of a peristaltic pump at a constant flow rate of 1 ml/minute. After stabilisation for 20 minutes, the dose of the stimulant, indicated in Table 3, dissolved in a physiological solution, was perfused for 120 minutes at a rate of 0.95 ml/hour. After 60 minutes of perfusion (basic stimulation), the products under test were administered intravenously (I.V.) in boli whilst the perfusion of the stimulant continued for a further 60 minutes. The acid secretion was recorded continuously as a function of time.
The activity of the product was evaluated as the reduction in the secreted acidity after administration of the product as a percentage of the basic acidity measured during the first 60 minutes of collection during which only pentagastrin was present.
The antagonistic compounds tested were administered in different doses so that an ID50 (that is the dose (in mg/Kg I.V.) which can inhibit the effect of the pentagastrin by 50% could be calculated.
The results thus obtained are given in the following table in which the activities of the compounds are expressed as ID50s under the stimulus of pentagastrin at 30 mcg/Kg/h.

The test system of another data set is fundic mucosa. Description: Pentagastrin-induced hyperplasia of the fundic mucosa in tumour-bearing mice. The following applies: 20 days. The data set is classed as in vivo. The protocol: (§1) Male mice weighing 20-25g were inoculated subcutaneously in the interscapular region with a suspension of 8 x 10⁴ tumour cells of a mouse colic adenocarcinoma.
(§2) 5 groups each of 10 animals were used, that is : one control group of animals, one group of animals treated with 250 mcg/ml of pentagastrin twice a day and two groups of animals treated with the compound A-5 in doses of 15 and 30 mg/Kg i.p. respectively, twice a day, plus pentagastrin in the manner described above.
(§3) After 20 days, the animals were killed and the fundic mucosa and the tumours were removed, weighed and extracted in order to determine their DNA content.

Data set [5] deals with mouse colic adenocarcinoma. Kind of data set: Pentagastrin-induced growth of transplanted colic tumour in mice. The data set is classed as in vivo. The following applies: 20 days. Here is the method:
as §1, §2, §3

The nature of another data set: in vivo. As to conditions: mouse, iv.
In a further data set the test system is mice. Kind of data set: Acute toxicity LD50 IV in mice. As to conditions: LD50 IV mice / ID50 IV rats.
The test system of data set [6] is guinea-pig gall bladders stimulated in vitro by CCK-8. The following applies: CCK-8 10ng/ml; from U.S. Patent A-4 791 215; cited from earlier work.
The mark [7] stands for this setting: displacement of 50% of pentagastrin tritiate, 30 minutes at 25°C, read-out: IC50.
The mark [8] stands for this setting: PEG + A-5 15 mg/Kg i.p. twice a day.
Setting [9] is: PEG + A-5 30 mg/Kg i.p. twice a day.

≈ marks a conversion by molar mass, not a printed value. Where two headings read alike, the source gives them in different places. Some results are limits rather than exact numbers.

Broadly, the IC50 is the concentration needed to halve the response being measured. Consider `CCCCCNC(=O)C(CCC(=O)O)NC(=O)c1cccc(Cl)c1` (racemic) [A1], for which the “IC50 ACTIVITY” value in data set [1] was more than 100 µg/mL. The values for the IC50 in [2] (setting [7]) and in data set [3] were 2000 nM and 6700 nM, respectively. In addition, the ED50 in [4] worked out at 56 mg/kg.

`CC(C)(C)CCNC(=O)C(CCC(=O)O)NC(=O)c1cccc(Cl)c1` (racemic) [A5, ( ± )-4-[(3-chlorobenzoyl)-amino]-5-(3,3-dimethylbutylamino)-5-oxopentanoic acid]: the “FUNDIC DNA” value with fundic mucosa (setting [8]) turned out to be 0.28 ± 0.02 mg; in the data set on fundic mucosa (setting [9]), 0.23 ± 0.05 mg. The “WEIGHT OF THE FUNDIC MUCOSA” value amounted to 25.1 ± 4.7 mg in the data set on fundic mucosa (setting [8]) and 19.9 ± 2.1 mg in the data set on fundic mucosa (setting [9]). In addition, the figures for the IC50 in data set [2] (setting [7]) and in data set [3] were 80 nM and 96 nM, respectively. The “TUMOROUS DNA” value in data set [5] (setting [8]) came out at 3.26 ± 0.49 mg; in data set [5] (setting [9]), 2.87 ± 0.2 mg. Moreover, the “WEIGHT OF THE COLIC TUMOUR” value in data set [5] (setting [8]) is 579.0 ± 40 mg; in data set [5] (setting [9]), 559.5 ± 43 mg. In addition, the ED50 in data set [4] stood at 35 mg/kg.

For the compound `O=C(O)CCC(NC(=O)c1cccc(Cl)c1)C(=O)NC1CCCCC1` (racemic) [A7], the “IC50 ACTIVITY” value in data set [1] was more than 100 µg/mL. For the same compound, in data set [2] (setting [7]), the IC50 worked out at 17000 nM. Besides, the ED50 in data set [4] worked out at 93 mg/kg.

On to `CCC(C)(CC)CCNC(=O)C(CCC(=O)O)NC(=O)c1cccc(Cl)c1` (racemic) [A13], for which the “IC50 ACTIVITY” value in data set [1] turned out to be 32 µg/mL (≈ 80.6 µM). Further, the “concentration relative to that of lorglumide” value in [1] (times greater than lorglumide) is “about 500 times”. Further, the values for the IC50 in data set [2] and in [3] were 91 nM and 92 nM, respectively. Also, the ED50 in [4] was 33 mg/kg.

Take `CCC(C)(C)CCNC(=O)C(CCC(=O)O)NC(=O)c1cccc(C)c1` (racemic) [A20]: the “IC50 ACTIVITY” value in data set [1] was more than 100 µg/mL. In addition, the IC50 came to 680 nM in data set [2] (setting [7]) and 830 nM in data set [3]. Further, the ED50 in [4] is 44 mg/kg.

By LD50 is commonly meant the dose at which mortality reaches 50%. Read a low LD50 as greater toxicity. Turning to `CC(C)(C)CCNC(=O)[C@@H](CCC(=O)O)NC(=O)c1cccc(Cl)c1` [D1, D-4-(3-chlorobenzoylamino)-5-(3,3-dimethylbutylamino)-5-oxopentanoic acid], the LD50 in the data set “in vivo” is approximately 600 mg/kg. Moreover, the “toxic dose (LD50) relative to the antigastrin dose (ID50)” value in the data set on mice is reported as “about 20 times”. Further, the “IC50 ACTIVITY” value in data set [1] worked out at 83 µg/mL (≈ 225 µM). In addition, the IC50 in [2] (setting [7]) worked out at 53 nM; in data set [3], 61 nM. For the same compound, the “times more active than the corresponding L-enantiomers (compound D5)” value in [3] (cortical membranes) is “about 10 times”. For the same compound, the ED50 in data set [4] was 28 mg/kg.

As to `CCCCCN(CCCCC)C(=O)C(CCC(=O)O)NC(=O)c1ccc(Cl)c(Cl)c1` (stereo not drawn) [Lorglumide, reference compound], in data set [1], the “IC50 ACTIVITY” value stood at 0.06 µg/mL (≈ 0.131 µM). Further, the IC50 in [2] (setting [7]) amounted to 11000 nM; in [3], 6100 nM. Moreover, the “times less active than the most powerful compounds of the series” value in data set [2] (ratio of IC50s, gastric glands) is recorded as “about 200 times”. Moreover, in data set [3] (ratio of IC50s, cortical membranes), the “times less powerful than the most active compounds” value is listed as “about 100 times”. The “concentration inhibiting by 50% the contraction induced by CCK-8” value in [6] was 0.06 µg/mL. For the same compound, in data set [4], the ED50 was more than 100 mg/kg. For the same compound, in [4] (up to a dose of 100 mg/Kg), the “activity against pentagastrin-induced acid secretion” value is “completely inactive”.
